Laboratory results reported in patent US5154930A, “Pharmacological agent-lipid solution preparation” (The Liposome Company, Inc., priority 1988, dated 1992).

Experiments:
[1] = Salting in: solubility in absolute ethanol with and without egg phosphatidylcholine; format: physicochemical; conditions: for salting in / form of apparent solubility / increase in solubility or apparent solubility (co-solubilizing or salting-in): lipid in lipid solvent
Method: To determine whether phospholipids can increase the solubility or apparent solubility of a pharmacological agent such as salicylic acid acetate, both drug and lipid were co-solubilized in a lipid solvent such as absolute ethanol (USP). Five ml of this lipid solvent was able to dissolve about a maximum of 1 gr. salicylic acid acetate. A lipid such as egg phosphatidylcholine was completely dissolved in 5 ml of ethanol in a series of test tubes and to this solution crystals of the test pharmacological agent salicylic acid acetate were added gradually and dissolved. […] Any convenient temperature and pressur may be used for this procedure that will dot adversely affect the pharmacological agent or boil the lipid solvent.
Five ml of absolute ethanol was able to dissolve maximum 1 gr. salicylic acid acetate. Egg phosphatidylcholine (Hepar) 1.5 gm was completely dissolved in 5 ml of ethanol in a series of test tubes and to this solution crystals of salicylic acid acetate were added gradually and dissolved. […] To accelerate the dissolving process all test tubes containing crystals of salicylic acid acetate and lipid solvent were agitated gently in a water bath of 40° C. and cooled to about 22.5° C.+/- about 2.5° C. after crystals were completely dissolved.

[2] = Stability of agent to water (hydrolysis) in ethanol; format: physicochemical; conditions: water even at about 5% in ethanol

| Structure (SMILES) | salting in / form of apparent solubility [1] | salting in / form of apparent solubility ([1]; listed as Amphoteracin B) | increase in solubility of drug (salting in) ([1]; egg phosphatidylcholine ethanol versus ethanol) | increase in solubility or apparent solubility (co-solubilizing or salting-in) [1] [%] | maximum amount dissolved in absolute ethanol [1] [gr.] | tolerance of water (hydrolysis) [2] |
| --- | --- | --- | --- | --- | --- | --- |
| C[C@@H]1[C@H](O)[C@@H](C)/C=C/C=C/C=C/C=C/C=C/C=C/C=C/[C@H](O[C@@H]2O[C@H](C)[C@@H](O)[C@H](N)[C@@H]2O)C[C@@H]2O[C@](O)(C[C@@H](O)C[C@@H](O)[C@H](O)CC[C@@H](O)C[C@@H](O)CC(=O)O[C@H]1C)C[C@H](O)[C@H]2C(=O)O [amphotericin B] | in the form of a complex with dissolved lipid rather than truly solubilized | similarly salted in but appears to do so in the form of complexes with lipid rather than simple solubilizing |  |  |  |  |
| COc1ccc2c(c1)c(CC(=O)O)c(C)n2C(=O)c1ccc(Cl)cc1 [indomethacin] |  |  | about 50% | ≤ 50 |  |  |
| CC(=O)Oc1ccccc1C(=O)O [salicylic acid acetate] |  |  |  | ≤ 50 | ~1 | do not tolerate the presence of water even at about 5% in ethanol |
